Assay results as given in patent US20160115540A1, “PRODRUGS AND DRUGS” (Biogen MA Inc., priority 2013, published 2016).
Structures can show the parent of a compound that is named as a salt.

Tested on: kidney
Experiment: Transcriptional profiling on Affymetrix GeneChips, single dose, naïve mice: kidney
Assay type: in vivo, C57BL/6 mice
Conditions: for Number of differentially expressed genes identified: Kidney: Naïve, Single Dose, 100 mpk, vs Vehicle
Experimental: Treated mice were sacrificed at 2, 7, or 12 hours. Tissues (liver, spleen, kidney, jejunum, cortex, hippocampus, striatum and whole blood) were collected and analyzed by transcriptional profiling on mouse Affymetrix GeneChips.
Tissues (liver, spleen, kidney, jejunum, cortex, hippocampus, striatum and whole blood) were collected and analyzed by transcriptional profiling on mouse Affymetrix GeneChips.
Animals were exposed to CO2 and whole blood collected via cardiac puncture. Two 100 μl aliquots of whole blood were collected in 1.5 mL microcentrifuge tubes and snap frozen in liquid nitrogen. Peripheral (liver, spleen, kidney and jejunum) and CNS brain (cerebellum, hippocampus, striatum and cortex) tissues were harvested and snap frozen in liquid nitrogen, with special care taken to collect tissues of similar size and from the same location. All samples were stored at −80° C. until RNA extraction was conducted.
For RNA preparation, frozen tissues were placed in 2 mL RNAse-free 96-well blocks with 1.5 mL QIAzol Lysis Reagent (QIAgen) and a 3.2 mm stainless steel bead (BioSpec Products, Bartlesville, Okla.). Tissues were disrupted for four cycles of 45 seconds in a Mini-Beadbeater (Biospec Products). RNA was extracted in chloroform and the aqueous phase was mixed with an equal volume of 70% ethanol. Extracted RNA was applied to RNeasy 96 plates and purified by the spin method according to the manufacturer's protocol (RNeasy 96 Universal Tissue Protocol, QIAgen, Hilden Germany).
Automated sample amplifications and biotin labelings were carried out using the NuGEN Ovation RNA Amplification system V2 (Cat #3100), Ovation WB reagent (Cat #1300) and Encore Biotin module (Cat #4200) (NuGEN Technologies, Inc, San Carlos, Calif.) according to manufacturer's recommendations using an Arrayplex automated liquid handler (Beckman Coulter, Indianapolis, Ind.). Two micrograms of biotin labeled sscDNA probe were hybridized to Affymetrix GeneChip Affymetrix HT_MG-430_PM plate arrays with modified conditions as described in Allaire et al. Washing and staining of the hybridized arrays were completed as described in the GeneChip Expression analysis technical manual for HT plate arrays using the Genechip® Array Station (Affymetrix, Santa Clara, Calif.) with modifications as described in Allaire et al. The processed GeneChip® plate arrays were scanned using GeneTitan scanner (Affymetrix, Santa Clara, Calif.).
Affymetrix scans were subject to quality control (QC) measures. These tests included a visual inspection of the distribution of raw signal intensities and an assessment of RNA degradation, relative log expression (RLE), and normalized unsealed standard error (NUSE). All sample scans that passed these QC metrics were included in the analysis.
All CEL files were subjected to GC-content-based Robust Multi-array Average (GCRMA) normalization (version 2.20.0) (Irizarry R A, et al. Nucleic Acids Res 2003; 31:e15; Li C, et al. Genome Biol 2001; 2:[…]0032). Expression levels were log (base 2) transformed.
All calculations and analyses were carried out using R (version 2.11.1) and Bioconductor computational tools (Gentleman R. Springer Science+Business Media 2005).

## COC(=O)/C=C/C(=O)O [MMF, monomethyl fumarate]
100MMF-vs-Veh, 12 h
  FC Hfe 1422645_PM_at: 1.56
  FC Ikbkg 1421209_PM_s_at: 1.57
  FC Mep1b 1418215_PM_at: −1.55
  FC Mthfd2 1419253_PM_at: 1.65
  FC Myo5a 1419754_PM_at: −3.09
  FC Nek6 1423596_PM_at: 1.69
  FC Pnkd 1418746_PM_at: 1.51
  FC Slc6a4 1417150_PM_at: 1.58
  FC Slc38a3 1418706_PM_at: 1.81
  FC Smcp 1418358_PM_at: −2.49
  FC Srxn1 (1419942_PM_at): 1.96
  FC Tfrc 1422966_PM_a_at: 1.51
  FC Tiam2 1423186_PM_at: 1.84
  FC Txnrd1 1421529_PM_a_at: 1.55
Kidney
  Number of genes, DMF Only / MMF Only: 94
Kidney, 2 hr
  Asns (1451095_PM_at) differential expression: 2.46
  Cbr3 (1427912_PM_at) differential expression: 2.96
  Gdf15 (1418949_PM_at) differential expression: 5.50
  Maf (probe set 1437473_PM_at) differential expression: −1.56
  Mthfd2 (1419253_PM_at) differential expression: 2.03
2 h after last dosing
  Number of differentially expressed genes identified: Kidney: 274
7 h after last dosing
  Number of differentially expressed genes identified: Kidney: 156
12 h after last dosing
  Number of differentially expressed genes identified: Kidney: 151
kidney, 7 hr
  Asns (1451095_PM_at) differential expression: 2.13
  Cbr1 (probe set 1460196_PM_at) differential expression: 1.58
  Cbr3 (1427912_PM_at) differential expression: 9.54
  Cul9 (probe set 1439866_PM_at) differential expression: −1.52
  Dbp (probe set 1418174_PM_at) differential expression: −1.73
  Fam107a (probe set 1435918_PM_at) differential expression: −1.77
  Frem2 (probe set 1457038_PM_at) differential expression: −1.66
  Gdf15 (1418949_PM_at) differential expression: 1.98
  Gpr135 (probe set 1441944_PM_s_at) differential expression: 1.66
  Ido2 (probe set 1425778_PM_at) differential expression: −1.52
  Il18 (probe set 1417932_PM_at) differential expression: −1.52
  Kcnh1 (probe set 1435994_PM_at) differential expression: −1.61
  Kif20b (probe set 1439695_PM_a_at) differential expression: −2.61
  Mthfd2 (1419253_PM_at) differential expression: 1.89
  Nmral1 (probe set 1430530_PM_s_at) differential expression: −1.52
  Ppm1e (probe set 1434990_PM_at) differential expression: −1.53
  Rab38 (probe set 1417700_PM_at) differential expression: −1.57
  Slc48a1 (probe set 1450410_PM_a_at) differential expression: 1.58
  Sphk2 (probe set 1426230_PM_at) differential expression: −1.54
  Tmem86a (probe set 1428758_PM_at) differential expression: −1.56
  Wdr90 (probe set 1426767_PM_at) differential expression: −1.58
kidney, 12 hr
  Acot1 (probe set 1449065_PM_at) differential expression: 1.59
  Acot1 /// Acot2 (probe set 1422997_PM_s_at) differential expression: 1.51
  Acsm2 (probe set 1427224_PM_at) differential expression: −1.52
  Aldh1a1 (probe set 1416468_PM_at) differential expression: 2.21
  Arhgap26 (probe set 1440688_PM_at) differential expression: −1.57
  Asns (1451095_PM_at) differential expression: 2.49
  Atp11a (probe set 1421167_PM_at) differential expression: −1.62
  B4galt5 (probe set 1433617_PM_s_at) differential expression: −1.51
  C8a (probe set 1428012_PM_at) differential expression: −1.51
  Cbr1 (probe set 1460196_PM_at) differential expression: 2.10
  Cbr3 (1427912_PM_at) differential expression: 7.02
  Cldn1 (probe set 1437932_PM_a_at) differential expression: 1.57
  Dio3os (probe set 1435121_PM_at) differential expression: 1.60
  Dpys (probe set 1436291_PM_a_at) differential expression: 1.51
  Ep400 (probe set 1449610_PM_at) differential expression: −1.67
  Fga (probe set 1424279_PM_at) differential expression: 1.79
  Gbe1 (probe set 1420654_PM_a_at) differential expression: 1.51
  Gdf15 (1418949_PM_at) differential expression: 2.01
  Gpr19 (probe set 1421756_PM_a_at) differential expression: 1.50
  Gpr135 (probe set 1441944_PM_s_at) differential expression: 1.59
  Gpt (probe set 1426502_PM_s_at) differential expression: 1.51
  Gsta2 (probe set 1421040_PM_a_at) differential expression: 1.61
  Gstp1 (probe set 1449575_PM_a_at) differential expression: 1.54
  Kif20b (probe set 1439695_PM_a_at) differential expression: −2.85
  Klk1b21 (probe set 1451607_PM_at) differential expression: 1.57
  Maf (probe set 1437473_PM_at) differential expression: 1.53
  Mthfd2 (1419253_PM_at) differential expression: 1.65
  Nek6 (probe set 1423596_PM_at) differential expression: 1.69
  Nfia (probe set 1446742_PM_at) differential expression: −1.74
  Orc4 (probe set 1431172_PM_at) differential expression: 1.50
  Pigl (probe set 1440965_PM_at) differential expression: 1.52
  Pnkd (probe set 1418746_PM_at) differential expression: 1.51
  Rcor3 (probe set 1428343_PM_at) differential expression: −1.51
  Reep6 (probe set 1430128_PM_a_at) differential expression: 1.51
  Slc5a3 (probe set 1440227_PM_at) differential expression: −1.50
  Slc6a4 (probe set 1417150_PM_at) differential expression: 1.58
  Slc8a1 (probe set 1437675_PM_at) differential expression: −1.86
  Slc38a3 (probe set 1418706_PM_at) differential expression: 1.81
  Slc39a8 (probe set 1448482_PM_at) differential expression: −1.55
  Slc48a1 (probe set 1450410_PM_a_at) differential expression: 1.53
  Slco2a1 (probe set 1444242_PM_at) differential expression: 1.63
  Smarca2 (probe set 1452333_PM_at) differential expression: −1.60
  Tfrc (probe set 1422966_PM_a_at) differential expression: 1.51
  Tmie (probe set 1443964_PM_at) differential expression: 1.65
  Trim16 (probe set 1460629_PM_at) differential expression: 1.51
kidney, 100MMF-vs-Veh, 12 h
  FC 1200003I10Rik /// 1200015M12Rik /// A130040M12Rik /// E430024C06Rik 1427932_PM_s_at: 1.54
  FC 1200016E24Rik (1452418_PM_at): 1.50
  FC 1300002K09Rik 1453234_PM_at: 1.88
  FC 1441333_PM_at (no gene symbol): −2.46
  FC 1441971_PM_at (no gene symbol): 1.51
  FC 1444920_PM_at (no gene symbol): −1.56
  FC 1447396_PM_at (no gene symbol): −1.52
  FC 1455722_PM_at (no gene symbol): −1.53
  FC 1458599_PM_at (no gene symbol): 1.57
  FC 1459091_PM_at (no gene symbol): 2.38
  FC 2010003K11Rik (1424626_PM_at): 1.65
  FC 2310043L19Rik (1440008_PM_at): 1.86
  FC 3110009E18Rik (1428023_PM_at): 1.58
  FC 4933427G17Rik 1431905_PM_s_at: 1.59
